The target of data set [1] is T1, MMP-1 (Homo sapiens, UniProt P03956).
T1 sequence (P03956 100-469): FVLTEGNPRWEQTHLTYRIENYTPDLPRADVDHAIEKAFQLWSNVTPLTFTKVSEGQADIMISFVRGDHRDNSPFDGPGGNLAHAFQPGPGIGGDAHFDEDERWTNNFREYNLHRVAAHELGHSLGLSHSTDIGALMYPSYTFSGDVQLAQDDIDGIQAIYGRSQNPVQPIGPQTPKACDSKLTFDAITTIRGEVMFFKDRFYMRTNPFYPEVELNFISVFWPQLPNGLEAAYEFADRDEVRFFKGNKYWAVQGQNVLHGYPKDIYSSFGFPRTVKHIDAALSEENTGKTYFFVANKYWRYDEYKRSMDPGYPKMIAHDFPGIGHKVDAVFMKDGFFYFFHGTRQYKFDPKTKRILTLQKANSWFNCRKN
The data set can be described thus: Dual-signal CLiPS, MMP-1 cleavage of cell-surface displayed substrates. Type of data set: biochemical. The following applies: MMP substrates from sort 4 of 5X library; cells incubated with 1.5 pM MMP-1. How it is done:
(§1) For screening and clone analysis, overnight cultures were subcultured by dilution into fresh medium (1:50) and grown for 2 hrs at 37° C. The subculture was induced with 0.1% arabinose and incubated with shaking at room temperature for 3 hrs. Cell aliquots were washed with PBS (pH 8.0), and optical density at 600 nm (OD600) was measured to estimate cell concentration. Cells (10^8) were pelleted by centrifugation, the supernatant was removed, and the cells were resuspended in reaction buffer (10 μL). Following addition of the enzyme, the reaction mixture was incubated at room temperature on a rotary shaker. Cells were removed and diluted 100-fold in PBS to stop the reaction, pelleted by centrifugation, and resuspended in PBS containing SA-PE (50 nM) and AlajGFP-MONA. After incubation at room temperature (1 hr), cells were washed with PBS and analyzed or sorted using a FACSAria™ cell sorter (Becton, Dickinson and Company).
(§2) Specifically, for each sample, conversion was determined by flow cytometry analyses using the relationship
(§3) [formula] where (FL−) is the fluorescence after incubating without enzyme, (FL+) is fluorescence after incubation with enzyme, and (FL0) is fluorescence of unlabeled cells. For the recombinant FRET protein reactions, conversion was calculated by dividing the ratiometric FRET signal (yellow fluorescence/cyan fluorescence) by the FRET ratio that results from complete cleavage (Felber et al., Biotechniques 36:878-85 (2004)). For synthetic peptide reactions, conversion was calculated by dividing the fluorescence increase by the fluorescence change due to complete hydrolysis. The reported enteropeptidase KM for the physiological substrate tripsinogen is 17 μM (Light et al., J Biol Chem 259:13195-8 (1984)), but 600 μM for short DDDDK (SEQ ID NO:02) peptides (Lu et al., J Mol Biol 292:361-73 (1999)). Given KM for short peptides is much larger than the substrate concentrations that were used (<5 μM), the Michaelis-Menton model simplifies to
The MMP-1 assays were performed by incubating cells with 1.5 pM MMP-1. Sorts for hydrolysis were performed after 16 hrs, 19 hrs, and 16 hrs for sorts 1, 3 and 5, respectively (FIGS. 9 and 10). Enrichment after 4 sorts can be seen by the fluorescence shift due to MMP-1 incubation (FIG. 10) and this population was sorted a final time for hydrolyzed substrates. These clones were sequences and assayed for conversion (Table 8). […] Many of these sequences have been reported as MMP-1 substrates. However, substrates of MMP-1 with amino acids M and L at positions P1 and P3 have not previously been reported.

The subject of data set [2] is tobacco etch virus protease (TEV). The data set can be described thus: Dual-signal CLiPS, TEV cleavage of cell-surface displayed substrates. Type of data set: biochemical. The protocol:
Construction of a control plasmid (pBSGXP2) expressing a fusion of the streptavidin-binding peptide (WCHPMWEVMCLR) (SEQ ID NO:34) (Rice et. al. 2006) and a GGSGGS (SEQ ID NO:01) sequence flanked by flexible linkers on the amino terminus of circularly permuted outer membrane X (CPX) and a binding peptide of SLP-76 (P2) on the carboxy-terminus was performed using primers 1, 2, and 3 with primers 4 and 5. […] Products were digested with SfiI and ligated to similarly digested pBAD33. A substrate library (pBS5XP2) of the form X5, where X is any amino acid, was constructed using PCR with a synthetic oligonucleotide incorporating NNS codons (primer 9) along with primers 1 and 8 (Table 2). The product was digested with SfiI and ligated into a similarly digested pBAD33 plasmid. Transformation of the plasmid library into electrocompetent MC1061 yielded 6×10^7 colony forming units.
A second substrate library (pBSToptP2) was created using primer 10 with primers 1 and 8. The product was digested with SfiI and ligated into a similarly digested pBAD33 plasmid. Transformation of the plasmid library into electrocompetent MC1061 yielded 5×10^7 colony forming units.
Streptavidin conjugated phycoerythrin (SAPE) was used for labeling streptavidin binding affinity ligand on the N- and C-termini of CPX (FIG. 15). […] Of the three fluorescent proteins AlajGFP-Mona gave a higher fluorescence and was used for all labeling. The resulting CPX scaffold required a 3 hr induction time due to the additional peptide that was fused to the C-terminus. For optimum labeling of cells without protease reaction, the cells were incubated for 1 hr at 22° C. with SAPE (50 nM) and AlajGFPM (250 nM). […] For the described example below 1 hr incubation was used.
as §1, §2, §3
The reaction buffer for TEV assays was 50 mM Tris-Cl pH 8.0 supplemented with 20. mM NaCl and 2 mM CaCl2. […]

Data set [3] concerns the target T2, enteropeptidase (Bos taurus, UniProt P98072).
T2 construct: the catalytic subunit light chain of enteropeptidase (EP) (New England Biolabs); purchased New England Biolabs
Description: Enteropeptidase cleavage of soluble CyPet-YPet FRET fusion protein substrates (fluorimetry). Type of data set: biochemical. The following applies: CyPet-YPet fusion protein substrate ~0.5 μM, 0.29 nM enteropeptidase. From the text: Substrates EP2.1, EP4.1, EP4.2, and EP4.3 identified for enteropeptidase by CLiPS were amplified with YPet using reverse primer 7 with forward primers 8, 9, 10, and 11, respectively (Table1). The canonical EP substrate was amplified as a fusion to YPet using primers 7 and 12 (Table 1). As a negative control, a GSGSGS (SEQ ID NO:18) linker was substituted for the six amino acid substrate sequence using primers 7 and 13 (Table 1). These products were digested with kpnI and sphI and ligated to similarly digested plasmid containing CyPET to yielded plasmids pBC21Y, pBC41Y, pBC42Y, pBC43Y pBCEPY and pBCGSY.
Overnight cultures of MC1061 transformed with the FRET substrate encoding expression vectors described above were subcultured 1:50 and grown for 2 hrs. […] Reactions were performed in 100 μL of enteropeptidase reaction buffer with ˜0.5 μM fusion protein, as determined using the extinction coefficient of YPet at 514 nm (Nguyen et al., Nat Biotechnol 23:355-60 (2005)) and Beer's law. Enteropeptidase was added to each reaction to a final concentration of 0.29 nM and fluorescence emission at 475 nm (cyan) and 527 nm (yellow) was monitored upon excitation at 433 nm using a Safire fluorimeter (Tecan).
[formula] where (FL−) is the fluorescence after incubating without enzyme, (FL+) is fluorescence after incubation with enzyme, and (FL0) is fluorescence of unlabeled cells. […]

In data set [4] the target is T3, enteropeptidase (catalytic subunit light chain) (Bos taurus, UniProt P98072).
T3 construct: the catalytic subunit light chain of enteropeptidase (EP) (New England Biolabs); purchased New England Biolabs
T3 sequence (P98072 801-1035 limits assumed): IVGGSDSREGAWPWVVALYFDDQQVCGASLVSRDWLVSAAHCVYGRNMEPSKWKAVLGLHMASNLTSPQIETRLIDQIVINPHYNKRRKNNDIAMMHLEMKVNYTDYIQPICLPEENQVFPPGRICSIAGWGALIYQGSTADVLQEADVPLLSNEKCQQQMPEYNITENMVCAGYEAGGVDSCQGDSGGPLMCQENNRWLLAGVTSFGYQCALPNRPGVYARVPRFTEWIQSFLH
The data set can be described thus: CLiPS whole-cell assay, enteropeptidase cleavage of cell-surface displayed substrates (FACS). Type of data set: biochemical. The following applies: for change in mean fluorescence intensity after incubation with enteropeptidase before SAPE labeling: E. coli displaying reporter-substrate, flow cytometry. How it is done:
For screening and clone analysis, overnight cultures were subcultured by dilution into fresh medium (1:50) and grown for 2 hours. The subculture was then induced with 0.04% arabinose and incubated with shaking at room temperature. Cell aliquots were harvested washed with PBS (pH 8.0) and absorbance at 600 nm (OD600) was measured to estimated density. Cells were pelleted by centrifugation, the supernatant removed and the cells resuspended in reaction buffer ([…]). The enzyme was added, and the reaction mixture was incubated at room temperature on rotary shaker (60 rpm). To stop the reaction cells were removed and diluted 100-fold in PBS, pelleted by centrifugation, and resuspended in PBS containing SA-PE (50 nM). After incubation at room temperature (1 hr), cells were washed with PBS and analyzed or sorted using a FACSAria™ cell sorter.
For enteropeptidase cleavage assays, cultures were induced for 2 hr. The reaction buffer for enteropeptidase was 50 mM Tris-Cl pH 8.0 supplemented with 20 mM NaCl and 2 mM CaCl2. […]
as §2
[formula] where (FL−) is the fluorescence after incubating without enzyme, (FL+) is fluorescence after incubation with enzyme, and (FL0) is fluorescence of unlabeled cells. For the recombinant FRET protein reactions, conversion was calculated by dividing the ratiometric FRET signal (yellow fluorescence/cyan fluorescence) by the FRET ratio that results from complete cleavage (Felber et al., Biotechniques 36:878-85 (2004)). For synthetic peptide reactions, conversion was calculated by dividing the fluorescence increase by the fluorescence change due to complete hydrolysis. […]
Given the utility of fluorescence-activated cell sorting (FACS) as a quantitative library screening tool, peptidase activity was assayed by displaying reporter-substrates on the surface of Esherichia coli (FIG. 1, panel A). […] In this way, protease activity towards a given substrate would be detectable by monitoring whole-cell fluorescence using FACS. […]
On the technique in general: A flow cytometer gives signals particle by particle.

Data set [5] deals with enteropeptidase. The following applies: reported values (Light et al. 1984; Lu et al. 1999); cited from earlier work.
Chain of enteropeptidase (P98072 801-1035 limits assumed): as above
[6] abbreviates: TEVopt library clones, 2 hour incubation with 2 units of TEV, Guava EasyCyte plate reading cytometer.
Where [7] appears, read: top TEV substrates from 5X library, 1 hr with 10 units of TEV.

Chain of tobacco etch virus protease (TEV) (P04517 2038-2255 limits assumed): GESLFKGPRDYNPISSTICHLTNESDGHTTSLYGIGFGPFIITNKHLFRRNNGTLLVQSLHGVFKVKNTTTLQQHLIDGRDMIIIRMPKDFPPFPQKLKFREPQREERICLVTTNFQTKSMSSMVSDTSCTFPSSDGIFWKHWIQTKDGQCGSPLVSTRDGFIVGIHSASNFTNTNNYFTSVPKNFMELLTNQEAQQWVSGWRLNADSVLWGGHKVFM
T2 sequence (P98072 801-1035 limits assumed): as the sequence (P98072 801-1035 limits assumed) above

Consider TPLAL, for which the % Conversion in data set [1] is 41.7%.

As to SLYWQG [D5], the “% Conversion” value in data set [2] (setting [6]) came to 71.6599%.

As for GEDLL [F09], in data set [2] (setting [7]), the “% Conversion” value came to 71%.

Consider MPVVL, for which the % Conversion in data set [1] turned out to be 42.8%.

Turning to SSGDRMWGG [EP 4.3], in data set [3], the “cleavage rate relative to DDDDK” value is 17 fold. Besides, in data set [4] (cell-surface displayed substrates, time-dependent conversion fit to Michaelis-Menton model), the “second order rate constant (kcat/KM) relative to canonical substrate DDDDK” value is reported as 13 fold.

Take WESLY [E11]: in data set [2] (setting [7]), the “% Conversion” value was 77%.

Take WLYLQG [D1]: in data set [2] (setting [6]), the “% Conversion” value worked out at 68.0478%.

VLYTQG [E6]: the “% Conversion” value in data set [2] (setting [6]) is recorded as 54.8951%.

Consider ELYAQG [C5], for which the “% Conversion” value in data set [2] (setting [6]) came to 58.8389%.

In data set [1], VPVVM registered a % Conversion of 36.6%.

The substance PMAVT showed a % Conversion in data set [1] of 50.4%.

For the substance PMAVI, in data set [1], the % Conversion was 69.9%.

With EVYVQG [B6], in data set [2] (setting [6]), the “% Conversion” value is 61.0145%.

Turning to DLYWQG [C3], the “% Conversion” value in data set [2] (setting [6]) is 73.3768%.

In the case of EEAVL [H07], in data set [2] (setting [7]), the “% Conversion” value was 71%.

As for QLYFQS [C6], the “% Conversion” value in data set [2] (setting [6]) came to 61.7894%.

On to PEVIY [C10], for which the “% Conversion” value in data set [2] (setting [7]) is reported as 81%.

A word on the Km: it is the concentration of substrate that gives half-maximal velocity. Regarding “DDDDKGGQS [Canonical, reference compound]”, the Michaelis constant (Km) in data set [5] was 600 µM. Also, the “change in mean fluorescence intensity after incubation with enteropeptidase before SAPE labeling” value in data set [4] is recorded as “roughly twenty-fold decrease”.

As to PVPMV, in data set [1], the % Conversion is 49.6%.

Take DRELY [F04]: the “% Conversion” value in data set [2] (setting [7]) is listed as 79%.

For VPVNM, the % Conversion in data set [1] worked out at 76%.

For the substance FLYLQG [A1], the “% Conversion” value in data set [2] (setting [6]) came out at 91.8387%.

As for LEQLI [B09], the “% Conversion” value in data set [2] (setting [7]) came to 76%.

EEELY [B02]: the “% Conversion” value in data set [2] (setting [7]) was 72%.

PVNVV showed a % Conversion in data set [1] of 78.9%.

For ALYIQG [A3], the “% Conversion” value in data set [2] (setting [6]) is 92.212%.

Take LLYIQG [D4]: the “% Conversion” value in data set [2] (setting [6]) was found to be 51.6773%.

For SLYVQG [E4], the “% Conversion” value in data set [2] (setting [6]) was 86.3465%.

Consider WEPLW [H08], for which the “% Conversion” value in data set [2] (setting [7]) was 73%.

As to ELYWQG [C4], the “% Conversion” value in data set [2] (setting [6]) came to 68.9173%.

For the substance MPLVM, in data set [1], the % Conversion was 65.9%.

Regarding VLYLQS [A4], the “% Conversion” value in data set [2] (setting [6]) is on record as 85.4432%.

For the substance ENLYFQS [Control, reference compound], in data set [2] (setting [6]), the “% Conversion” value was 66.3577%.

Consider DVYVQG [A2], for which the “% Conversion” value in data set [2] (setting [6]) is given as 52.6409%.

As to “tripsinogen: physiological substrate of enteropeptidase”, the Michaelis-Menten constant (Km) in data set [5] was 17 µM.

As to GGQSGQ, in data set [4], the “change in mean fluorescence intensity after incubation with enteropeptidase before SAPE labeling” value is “minimal change in fluorescence”.

PVAMR displayed a % Conversion in data set [1] of 72.9%.

Source of the values: patent US7666817B2, “Cellular libraries of peptide sequences (CLiPS) and methods of using the same” (The Regents of the University of California, priority 2005, dated 2010).
